Where two headings read alike, the source gives them in different places.
Legend:
[1] = Stability in plasma, 6 h incubation at 37°C (rat); assay type: in vitro ADME; details: Sprague-Dawley
Description: (§1) The phosphate buffer (100 mM) and sodium hydroxide solution (1.0 M) were prepared in deionized water. […] PPB was determined by equilibrium dialysis method. An aliquot (150 μL) of NHPPC spiked plasma and phosphate buffer (pH 7.4) was added into the donor side and the receiver side of each designated well. The plate was covered with adhesive sealing film to prevent evaporation and placed in a water-bath shaker kept at 37°C for 6 h with a rate of 50 rpm. […] At the end of 6 h, aliquots were taken from each side of each well (n = 3) and kept in a −20°C freezer prior to analysis. The stability, device recovery and PPB were calculated using the following equations: Remaining at 6 h (%)=C6h/C0h×100%, Device recovery (%)=CDonor+CReceiver/C6h×100%, PPB (%)=CDonor−CReceiver/CDonor×100%.

[2] = Stability in plasma, 6 h incubation at 37°C (human); assay type: in vitro ADME
Description: as §1

[3] = Plasma protein binding by equilibrium dialysis (rat); assay type: in vitro ADME, Sprague–Dawley rat; details: Sprague-Dawley
Description: as §1

[4] = Plasma protein binding by equilibrium dialysis (dog); assay type: in vitro ADME, Beagle dog; details: beagle
Description: as §1

dog plasma proteins = assay: as above; assay type: in vitro ADME, Beagle dog; details: dog plasma, mean of 0.2 and 1 µM
Description: as §1

[5] = Plasma protein binding by equilibrium dialysis (human); assay type: in vitro ADME
Description: as §1

human plasma proteins = assay: as above; assay type: in vitro ADME; details: human plasma, mean of 0.2 and 1 µM
Description: as §1

[6] = In vitro metabolic stability in dog liver microsomes; assay type: in vitro ADME; details: for remaining at 1 h, 1 µM: liver microsomes, pH 7.4, dog liver microsomes, 60 min, read-out: percent remaining
Description: The phosphate buffer (pH 7.4, 100 mM) and (300 mM) were prepared in deionized water. NADP and IA were dissolved in phosphate buffer and MgCl2 solution and then added 20 μL IDH (18 units/mg protein) and mixed. NHPPC (1 mM) and positive control drug were prepared by dilution using DMSO and then the NHPPC and positive control drug working solution (50 μM) were obtained by dilution using methanol: H2O (1:1, v/v) mixture. Pooled human, rat and dog liver microsomes were added to phosphate buffer pH7.4 to a concentration 20 mg/mL. NHPPC was incubated with liver microsomes. The incubation solution of the final reaction conditions contained 50 mM potassium phosphate buffer (pH 7.4), 0.5 mg protein/mL microsomes, 3 mM MgCl2, 2 mM NADPH and 1 μM NHPPC or positive control drug in a final volume of 100 μL. In sample and positive control groups, NADPH was added into the incubation solutions. In the negative control group, water (the replacement of NADPH) was added into the incubation solutions. Samples were incubated aerobically in a shaking water bath at 37°C and the reaction was terminated by adding 300 μL of ice cold acetonitrile (contain 100 ng/mL IS) at different interval 0, 5, 10, 20, 30 and 60 min. While positive control and negative control were incubated aerobically in a shaking water bath at 37°C for 0 and 60 min, respectively. NHPPC and control concentrations were determined by LC-MS/MS at each time point (n = 3). Calculation of t1/2 and CLint was performed by using following equations, where K is the elimination rate constant (min^−1) and QH is hepatic blood flow (mL/min/kg). t1/2=0.693/KCLint,in vitro=VD×KVD=Volume of reaction mixture(mL)/mg of protein per reation.
Hepatic intrinsic clearance was estimated by using the scaling factors and calculated by using the following equation (Lave et al. [1997]). CLint,in vivo=CLint×mg microsomal protein per liver×g liver per kg body weight, Cint,H=CLint,in vivo×QH/CLint,in vivo+QH,EH=CLint,H/QH.

[7] = In vivo pharmacokinetic study in dogs; design: species or system male Beagle dogs; details: dog; for MRT inf: read-out: MRT0-∞
rabbit model = assay: Preliminary efficacy experiment of rabbit model in vivo; details: compared with avanafil, data not published
[8] = 0.2 µM, n = 3, read-out: Mean drug remaining %
[9] = 1 µM, n = 3, read-out: Mean drug remaining %
[10] = mean of 0.2 and 1 µM, read-out: Mean drug remaining %
[11] = male, Beagle, plasma, IV 1 mg/kg
[12] = male, Beagle, plasma, PO 1 mg/kg

remaining at 6 h, 0.2 µM [1, 8]: 100 ± 1.93% | remaining at 6 h, 1 µM [1, 9]: 102 ± 1.26% | remaining at 6 h [1, 10]: 101 ± 1.01% | remaining at 6 h, 0.2 µM [2, 8]: 99.8 ± 1.37% | remaining at 6 h, 1 µM [2, 9]: 102 ± 1.5% | remaining at 6 h [2, 10]: 101 ± 1.23% | recovery at 6 h, 0.2 μM ([3]; pH 7.4, rat plasma, equilibrium dialysis, n = 3, read-out: Mean device recovery %): 98.6 ± 0.13% | fraction unbound at 6 h, 0.2 µM ([3]; rat, plasma, pH 7.4, rat plasma, 0.2 µM, equilibrium dialysis 6 h, read-out: Mean PPB % (converted)): 0.043 | fraction unbound at 6 h, 1 µM ([3]; rat, plasma, pH 7.4, rat plasma, 1 µM, equilibrium dialysis 6 h, read-out: Mean PPB % (converted)): 0.033 | fraction unbound at 6 h ([3]; rat, plasma, pH 7.4, rat plasma, mean of 0.2 and 1 µM, read-out: Mean PPB %): < 0.05 | fraction unbound at 6 h, 0.2 µM ([4]; dog, plasma, pH 7.4, dog plasma, 0.2 µM, equilibrium dialysis 6 h, read-out: Mean PPB % (converted)): 0.008 | fraction unbound at 6 h, 1 µM ([4]; dog, plasma, pH 7.4, dog plasma, 1 µM, equilibrium dialysis 6 h, read-out: Mean PPB %): 0.001 ± 3.8e-06 | recovery at 6 h, 0.2 μM ([4]; pH 7.4, dog plasma, equilibrium dialysis, n = 3, read-out: Mean device recovery %): 95.7 ± 0.3% | Mean PPB % (dog plasma proteins): 99.6 ± 0.26% | fraction unbound at 6 h, 0.2 µM ([5]; human, plasma, pH 7.4, human plasma, 0.2 µM, equilibrium dialysis 6 h, read-out: Mean PPB % (converted)): 0.007 | fraction unbound at 6 h, 1 µM ([5]; human, plasma, pH 7.4, human plasma, 1 µM, equilibrium dialysis 6 h, read-out: Mean PPB % (converted)): 0.005 | recovery at 6 h, 0.2 μM ([5]; pH 7.4, human plasma, equilibrium dialysis, n = 3, read-out: Mean device recovery %): 101.2 ± 0.02% | Mean PPB % (human plasma proteins): 99.4 ± 0.13% | remaining at 1 h, 1 µM ([6]; dog, in the presence of NADPH, 1 μM): 0.8% | remaining at 1 h, 1 µM ([6]; dog, without NADPH regenerating system): 98.4% | CLH ([6]; dog, scaled from liver microsomes): 25.3 mL/min/kg | half-life at 1 µM ([6]; liver microsomes (pooled), pH 7.4, dog liver microsomes): 8.2 min | microsomal CLint at 1 µM ([6]; liver microsomes (pooled), pH 7.4, dog liver microsomes, read-out: CLint, ivtro): 120 µL/min/mg | k el at 1 µM ([6]; pH 7.4, dog liver microsomes, read-out: Ke (converted)): 0.0014 s⁻¹ | K10 ([7]; IV 1 mg/kg): 0.52 ± 0.03 h⁻¹ | K10 ([7]; PO 1 mg/kg): 0.45 ± 0.06 h⁻¹ | BA ([7]; PO 1 mg/kg vs IV 1 mg/kg, 1 mg/kg): 53.1 ± 14.2% | AUC(0-inf) [7, 11]: 685 ± 40 ng·h/mL | AUC(0-t) [7, 11]: 679 ± 38.5 ng·h/mL | clearance [7, 11]: 24.3 mL/min/kg | half-life [7, 11]: 1.33 ± 0.06 h | MRT inf [7, 11]: 1.15 ± 0.04 h | Vd ([7]; male, Beagle, plasma, IV 1 mg/kg, read-out: Vss): 1.68 ± 0.08 L/kg | AUC(0-inf) [7, 12]: 364 ± 97.4 ng·h/mL | AUC(0-t) [7, 12]: 351 ± 96.1 ng·h/mL | Cmax [7, 12]: 144 ± 35.3 ng/mL | Tmax [7, 12]: 0.5 h | half-life [7, 12]: 1.57 ± 0.22 h | MRT inf [7, 12]: 2.54 ± 0.15 h | Tmax ([7]; male, beagle, plasma, PO 1 mg/kg): 0.5 to 1 h
Structure (SMILES): COc1ccc(CNc2nc(N3CCC[C@H]3CO)ncc2C(=O)NCc2ccccn2)cc1Cl [NHPPC, N-(2-pyridylmethyl)-2-hydroxiymethyl-1-pyrrolidinyl-4-(3-chloro-4-methoxy-benzylamino)-5-pyrimidine-carboxamide]
preliminary efficacy (rabbit model): stronger than avanafil
